Tested on: 276233-004-R-J1-PDC complex spheroid viability
Assay: Anticancer human tumor 276233-004-R-J1-PDC patient-derived colon adenocarcinoma cell line growth inhibition [GQUAD]
Details: for IC50: curve of first compound; for viability, T/C: stronger effect = lower value
Method in brief: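 Tumor cells were grown as complex spheroids with HUVEC endothelial cells and mesenchymal stem cells as stroma. G-quadruplex stabilizers were combined with targeted agents over half-log dilutions from near the clinical Cmax, or from 10 microM.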

[1] = second compound 0.0316 µM, first compound 0.0316 µM
[2] = second compound 0.0316 µM, first compound 0.1 µM
[3] = second compound 0.0316 µM, first compound 0.316 µM
[4] = second compound 0.0316 µM, first compound 1 µM
[5] = second compound 0.0316 µM, first compound 3.16 µM
[6] = second compound 0.0316 µM, first compound 10 µM
[7] = second compound 0.1 µM, first compound 0.0316 µM
[8] = second compound 0.1 µM, first compound 0.1 µM
[9] = second compound 0.1 µM, first compound 0.316 µM
[10] = second compound 0.1 µM, first compound 1 µM
[11] = second compound 0.1 µM, first compound 3.16 µM
[12] = second compound 0.1 µM, first compound 10 µM
[13] = second compound 0.316 µM, first compound 0.0316 µM
[14] = second compound 0.316 µM, first compound 0.1 µM
[15] = second compound 0.316 µM, first compound 0.316 µM
[16] = second compound 0.316 µM, first compound 1 µM
[17] = second compound 0.316 µM, first compound 3.16 µM
[18] = second compound 0.316 µM, first compound 10 µM
[19] = second compound 1 µM, first compound 0.0316 µM
[20] = second compound 1 µM, first compound 0.1 µM
[21] = second compound 1 µM, first compound 0.316 µM
[22] = second compound 1 µM, first compound 1 µM
[23] = second compound 1 µM, first compound 3.16 µM
[24] = second compound 1 µM, first compound 10 µM
[25] = second compound 3.16 µM, first compound 0.0316 µM
[26] = second compound 3.16 µM, first compound 0.1 µM
[27] = second compound 3.16 µM, first compound 0.316 µM
[28] = second compound 3.16 µM, first compound 1 µM
[29] = second compound 3.16 µM, first compound 3.16 µM
[30] = second compound 3.16 µM, first compound 10 µM
[31] = second compound 10 µM, first compound 0.0316 µM
[32] = second compound 10 µM, first compound 0.1 µM
[33] = second compound 10 µM, first compound 0.316 µM
[34] = second compound 10 µM, first compound 1 µM
[35] = second compound 10 µM, first compound 3.16 µM
[36] = second compound 10 µM, first compound 10 µM
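Also: spheroids exposed to drugs for seven days.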
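For viability, T/C in this document: 100% = DMSO vehicle control viability.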

How did the IC50 (second compound 0.0316 µM) turn out when `CC1COCCN1c1cc(C2(O)CC3CCC(C2)O3)c2cnn(-c3ccn[nH]3)c2n1` (centres undefined) + Cc1cnc(CNC(=O)c2c(=O)c3ccc(N4CCCN(C)CC4)nc3n3c2sc2ccccc23)cn1 was run?
The IC50 was 3100 nM.

What about the IC50 (second compound 0.1 µM) of the same compound?
Its IC50 is 3560 nM.

What about the IC50 (second compound 0.316 µM) of the same compound?
Its IC50 is 1470 nM.

What about the IC50 (second compound 1 µM) of the same compound?
The IC50 was 1020 nM.

What about the IC50 (second compound 3.16 µM) of the same compound?
The IC50 was 642 nM.

What about the IC50 (second compound 10 µM) of the same compound?
The IC50 was 271 nM.

And the viability, T/C [1]?
The viability, T/C was 81%.

And the viability, T/C [2]?
The viability, T/C was 61.9%.

What about the viability, T/C [3] of the same compound?
The viability, T/C was 79.2%.

What about the viability, T/C [4] of the same compound?
The viability, T/C was 50.7%.

What about the viability, T/C [5] of the same compound?
The viability, T/C was 52.1%.

And the viability, T/C [6]?
Its viability, T/C is 40.3%.

And the viability, T/C [7]?
The viability, T/C was 79.7%.

What about the viability, T/C [8] of the same compound?
The viability, T/C was 80.7%.

And the viability, T/C [9]?
Its viability, T/C is 60.6%.

And the viability, T/C [10]?
The viability, T/C was 63.5%.

And the viability, T/C [11]?
Its viability, T/C is 56.3%.

And the viability, T/C [12]?
The viability, T/C was 35.8%.

What about the viability, T/C [13] of the same compound?
Its viability, T/C is 71.1%.

And the viability, T/C [14]?
Its viability, T/C is 85.3%.

And the viability, T/C [15]?
Its viability, T/C is 62.6%.

And the viability, T/C [16]?
The viability, T/C was 50.6%.

What about the viability, T/C [17] of the same compound?
The viability, T/C was 48.7%.

And the viability, T/C [18]?
Its viability, T/C is 32.9%.

What about the viability, T/C [19] of the same compound?
The viability, T/C was 68.8%.

What about the viability, T/C [20] of the same compound?
The viability, T/C was 75%.

What about the viability, T/C [21] of the same compound?
Its viability, T/C is 50.4%.

What about the viability, T/C [22] of the same compound?
The viability, T/C was 50%.

And the viability, T/C [23]?
The viability, T/C was 44.6%.

What about the viability, T/C [24] of the same compound?
The viability, T/C was 24.9%.

What about the viability, T/C [25] of the same compound?
The viability, T/C was 55.7%.

What about the viability, T/C [26] of the same compound?
The viability, T/C was 59.7%.

And the viability, T/C [27]?
Its viability, T/C is 56.4%.

And the viability, T/C [28]?
Its viability, T/C is 44.8%.

What about the viability, T/C [29] of the same compound?
Its viability, T/C is 35.9%.

And the viability, T/C [30]?
The viability, T/C was 24.6%.

What about the viability, T/C [31] of the same compound?
The viability, T/C was 63.2%.

What about the viability, T/C [32] of the same compound?
The viability, T/C was 60.1%.

What about the viability, T/C [33] of the same compound?
The viability, T/C was 46.9%.

What about the viability, T/C [34] of the same compound?
Its viability, T/C is 41.7%.

What about the viability, T/C [35] of the same compound?
The viability, T/C was 35.6%.

What about the viability, T/C [36] of the same compound?
Its viability, T/C is 20%.

Which results are given for `O=C(NO)c1cnc(N2CCN(S(=O)(=O)c3ccc4ccccc4c3)CC2)nc1` + CN(C)c1ccc(Nc2c3ccc(NC(=O)CCN4CCCC4)cc3nc3cc(NC(=O)CCN4CCCC4)ccc23)cc1?
IC50 (second compound 0.0316 µM): 564 nM; IC50 (second compound 0.1 µM): 382 nM; IC50 (second compound 0.316 µM): 291 nM; IC50 (second compound 1 µM): 385 nM; IC50 (second compound 3.16 µM): 207 nM; IC50 (second compound 10 µM): < 31.6 nM; viability, T/C [1]: 97.6%; viability, T/C [2]: 110%; viability, T/C [3]: 93.9%; viability, T/C [4]: 6.51%; viability, T/C [5]: 1.16%; viability, T/C [6]: 0.86%; viability, T/C [7]: 77.9%; viability, T/C [8]: 138%; viability, T/C [9]: 59.3%; viability, T/C [10]: 5.11%; viability, T/C [11]: 0.78%; viability, T/C [12]: 1.12%; viability, T/C [13]: 61%; viability, T/C [14]: 90.4%; viability, T/C [15]: 48%; viability, T/C [16]: 4.4%; viability, T/C [17]: 1.75%; viability, T/C [18]: 1.22%; viability, T/C [19]: 70%; viability, T/C [20]: 85.4%; viability, T/C [21]: 59.9%; viability, T/C [22]: 1.33%; viability, T/C [23]: 1.89%; viability, T/C [24]: 2.09%; viability, T/C [25]: 74.2%; viability, T/C [26]: 68.7%; viability, T/C [27]: 38.8%; viability, T/C [28]: 3.01%; viability, T/C [29]: 1.99%; viability, T/C [30]: 0.85%; viability, T/C [31]: 35.5%; viability, T/C [32]: 45.6%; viability, T/C [33]: 25.5%; viability, T/C [34]: 5.18%; viability, T/C [35]: 1.04%; viability, T/C [36]: 1.85%
